Laboratory results as given in patent US6482850B2, “Hydrolysis-promoting hydrophobic taxane derivatives” (priority 1995, dated 2002).
Like-named read-outs stand apart in the source and are kept apart here.

How the values were obtained:
A549 human NSCLC = assay: i.p. A549 tumor, i.p. treatment, survival; conditions: for % ILS / LTS/n / MST Days + SEM / Median survival time: treatment days 1, 3, 5, 7 and 9 i.p.
Protocol: Note that long-term survivors (mice that survived through day 300 after cell inoculation) were not included in mean, median, or % ILS calculations.
SCID mice (6/group) were injected with 5×10^6 A549 human NSCLC cells i.p. (day 0).

[1] = tested on: MCF-7 human breast carcinoma; assay: In vitro sensitivity, sulforhodamine B cytotoxicity assay, MCF-7 (Table 2); assay type: cell-based; conditions: 72-hour incubation; averaged from two separate experiments
OVCAR-3 cancer cells = conditions: read-out: GI50 ± S.D. OVCAR-3; 72 hr, SRB assay
Protocol: Briefly, 96-well microtiter plates were inoculated (100 μL/well) with 5×10^3 (A549) or 7.5×10^3 (OVCAR-3) cells/well, in RPMI-1640 supplemented with 10% FBS (growth media). The plates were incubated for 24 hr at 37° C., 100% humidity and 5% CO2. At 24 hours, growth media (100 μL) was added to designated “time zero” plates. Similarly, serial dilutions of drug or vehicle (in media) were added (100 μL aliquots) to the test and vehicle control wells at twice the predetermined highest concentration. There were triplicate wells on each plate and duplicate plates (total 6 wells) for each drug concentration. The test plates were incubated as above for 72 hr. Cells (including time zero plates) were then fixed with 50 μL of 50% trichloroacetic acid (TCA) (w:v) for adherent cells or 80% TCA for suspended cells, and plates refrigerated at 4° C. for 1 hr. […] The bound stain was solubilized with 100 μL of 10 mM Tris buffer and the optical density was read spectrophotometrically at 490 nm (Microplate Reader Model 3550-UV, Bio-Rad, Hercules, Calif.). Percent growth was calculated as follows: (T-T0) / (C-T0)×100; where (T)=mean optical density of treated wells at a given drug concentration, (T0)=mean optical density of time zero wells, and (C)=mean optical density of control wells.

[2] = tested on: A-549 human lung carcinoma; assay: In vitro sensitivity, sulforhodamine B cytotoxicity assay, A-549 (Table 2); assay type: cell-based; conditions: 72-hour incubation; averaged from two separate experiments
Protocol: Briefly, 96-well microtiter plates were inoculated (100 μL/well) with 5×10^3 (A549) or 7.5×10^3 (OVCAR-3) cells/well, in RPMI-1640 supplemented with 10% FBS (growth media). The plates were incubated for 24 hr at 37° C., 100% humidity and 5% CO2. At 24 hours, growth media (100 μL) was added to designated “time zero” plates. Similarly, serial dilutions of drug or vehicle (in media) were added (100 μL aliquots) to the test and vehicle control wells at twice the predetermined highest concentration. […] Cells (including time zero plates) were then fixed with 50 μL of 50% trichloroacetic acid (TCA) (w:v) for adherent cells or 80% TCA for suspended cells, and plates refrigerated at 4° C. for 1 hr. […] The plates were then air-dried for 24 hr.

[3] = tested on: OVCAR-3 human ovarian cancer; assay: i.p. OVCAR-3 tumor, i.v. treatment, survival (FIG. 6); assay type: in vivo, mice
Protocol: Mice were observed daily for mortality and % ILS was calculated as described above.

[4] = tested on: OVCAR-3 human ovarian cancer; assay: s.c. OVCAR-3 tumor, i.v. treatment, tumor volume (FIG. 7); assay type: in vivo, mice
Protocol: OVCAR-3 human ovarian cancer.
The tumor volume (mm^3) from tumor measurement was calculated: (Length * (Width/2)^2 * π). Mice were sacrificed when the average tumor volume of the group reached 1500 mm^3.

[5] = tested on: HT-29 human colon carcinoma cells; assay: In vitro sensitivity, sulforhodamine B cytotoxicity assay, HT-29 (Table 2); assay type: cell-based; conditions: 72-hour incubation; averaged from two separate experiments
[6] = tested on: OVCAR-3 human ovarian cancer; assay: i.p. OVCAR-3 tumor, i.p. treatment, survival; conditions: for % ILS / LTS/n (mice that survived to 300 days) / MST Days ± SEM (n) / Median survival time: treated days 20, 22, 24, 26 and 28 i.p.; for MST Days ± SEM (n) / Median survival time: long-term survivors not included
Protocol: C.B-17 SCID female mice were injected i.p. with 5×10^6 OVCAR-3 human ovarian cancer cells (day 0). […] Note that long-term survivors (mice that survived through day 300 after cell inoculation) were not included in mean, median, or % ILS calculations.

A549 human lung cancer = assay: s.c. A549 tumor, i.v. treatment, tumor volume (FIG. 8); assay type: in vivo, mice
Description: Mice were sacrificed when the average tumor volume of the group reached 1500 mm^3.

[7] = tested on: MCF-7/ADR (adriamycin-resistant); assay: In vitro sensitivity, sulforhodamine B cytotoxicity assay, MCF-7/ADR (Table 2); assay type: cell-based, human; conditions: 72-hour incubation; averaged from two separate experiments
CDF1 female mice = assay: Acute toxicity of liposomal paclitaxel or paclitaxel derivative given intraperitoneally; conditions: i.p.; for number of mice that died within the first 14 days post-injection/total: liposomes
Protocol: Moreover, liposomes containing either paclitaxel or a 2′-(2-bromo) hydrophobic paclitaxel derivative (containing either a six-carbon (C-6), C-8, C-12, C-14 or C-16 acyl chain at the 2′ position) were administered, intraperitoneally in 5 doses, to SCID (severe combined inimunodeficiency) mice bearing a human ovarian cancer (OvCar 3), at a dose of 12.5 mg paclitaxel per kg or a dose of 50 mg paclitaxel derivative per kg.
CDF1 female mice, 5 or 10 mice per group, were intraperitoneally administered either paclitaxel-, 2′-C6-paclitaxel derivative-, or 2′-C16-paclitaxel derivative-containing liposomes, in a single dose, or 5 doses, of either 12.5, 25, 50, 100, 200, 300. 400 or 500 mg of paclitaxel or paclitaxel derivative per kg of mouse body weight.

[8] = Protocol: The 20 mg/mL formulation was further diluted to 6 mg/mL in 5% dextrose. […] At 0h, 24h, 1, 2, 3, 4, and 5 weeks samples were chromatographically analyzed by diluting the drugs to 1 mg/mL with 5% dextrose and then mixing 1:1 with acetonitrile. The chromatographic system consisted of a Shimadzu LC100 system with a UV detector. The column used was an Inertsil-ODS2, 150 ×4.6 mm (5 micron particle size) from Keystone Scientific (Bellefonte, Pa.). 20 μL of each sample was injected and read at 227 nm at ambient temperature. […] The constant flow rate was 1 mL/min.

Protocol for A549 cancer cells: Briefly, 96-well microtiter plates were inoculated (100 μL/well) with 5×10^3 (A549) or 7.5×10^3 (OVCAR-3) cells/well, in RPMI-1640 supplemented with 10% FBS (growth media). The plates were incubated for 24 hr at 37° C., 100% humidity and 5% CO2. At 24 hours, growth media (100 μL) was added to designated “time zero” plates. Similarly, serial dilutions of drug or vehicle (in media) were added (100 μL aliquots) to the test and vehicle control wells at twice the predetermined highest concentration. There were triplicate wells on each plate and duplicate plates (total 6 wells) for each drug concentration. The test plates were incubated as above for 72 hr. Cells (including time zero plates) were then fixed with 50 μL of 50% trichloroacetic acid (TCA) (w:v) for adherent cells or 80% TCA for suspended cells, and plates refrigerated at 4° C. for 1 hr. The supernatant was discarded (suspended cell plates were first centrifuged) and the wells rinsed six times with tap water and air-dried. One hundred microliters of 0.4% SRB in 1% acetic acid were added to each well and the plates were incubated under ambient (RT) conditions for 10 min. Unbound stain was removed by rinsing the wells three times with 1% acetic acid. The plates were then air-dried for 24 hr. The bound stain was solubilized with 100 μL of 10 mM Tris buffer and the optical density was read spectrophotometrically at 490 nm (Microplate Reader Model 3550-UV, Bio-Rad, Hercules, Calif.). Percent growth was calculated as follows: (T-T0) / (C-T0)×100; where (T)=mean optical density of treated wells at a given drug concentration, (T0)=mean optical density of time zero wells, and (C)=mean optical density of control wells.

## CCCCCCCCCCCCCC[C@@H](Br)C(=O)O[C@@H](C(=O)O[C@H]1C[C@@]2(O)[C@@H](OC(=O)c3ccccc3)[C@@H]3[C@]4(OC(C)=O)CO[C@@H]4C[C@H](O)[C@@]3(C)C(=O)[C@H](OC(C)=O)C(=C1C)C2(C)C)[C@@H](NC(=O)c1ccccc1)c1ccccc1 [BrC16HT, 2′-(R)-[2-bromohexadecanoyl] paclitaxel]
A549 human NSCLC; i.p. on days 1, 3, 5, 7 & 9
  survival time of tumor-bearing mice vs. control: significantly (p<0.05 vs. control) increased the survival time
A549 human NSCLC; 25 mg/kg
  % ILS: 247%
  LTS/n: 0/6
  MST Days + SEM: 117 + 8 Days
  Median survival time: 112 days
A549 human NSCLC; 50 mg/kg
  % ILS: 450%
  LTS/n: 0/6
  MST Days + SEM: 186 + 30 Days
  Median survival time: 171 days
[1]
  GI50: 71 nM
OVCAR-3 cancer cells
  GI50: 20 ± 3.3 nM
[2]
  GI50: 127 nM
[3]; 12.5 mg/kg i.v. on days 20, 22, 24, 26 & 28
  medium survival times: 182 days
[3]; 25 mg/kg i.v. on days 20, 22, 24, 26 & 28
  survival time compared to controls: significantly prolonged compared to controls (p<0.0001)
[3]; 12.5 or 25 mg/kg i.v. on days 1, 3, 5, 7, 9, 42, 44, 46, 48 & 50 (FIG. 6a)
  survival time vs. control: significantly (p<0.05 vs. control) increased the survival time
[3]; 12.5 or 25 mg/kg i.v., FIG. 6a schedule
  efficacy compared with Taxol®: more effective than Taxol®
[3]; i.v. on days 20, 22, 24, 26 & 28, BrC16HT 12.5 or 25 mg/kg, Taxol® 12.5 mg/kg (FIG. 6b)
  survival time vs. control: significantly (p<0.05 vs. control) increased the survival time
[4]; 12.5 mg/kg i.v. on days 1, 3, 5, 7 & 9
  delaying tumor growth: approximately 79 days
[4]; 25 mg/kg i.v. on days 1, 3, 5, 7 & 9
  tumor growth suppression: suppressed tumor growth completely up to 120 days post-implantation
[4]; i.v. on days 1, 3, 5, 7 & 9, BrC16HT 12.5-25 mg/kg, Taxol® 25 mg/kg
  tumor growth vs. control: significantly (p<0.05 vs. control) inhibited the tumor growth
[5]
  GI50: 59.5 nM
A549 cancer cells; in both cell lines (A549, OVCAR-3)
  GI50 relative to Taxol®: approximately ten times higher than Taxol®
A549 cancer cells; read-out: GI50 ± S.D. A549, 72 hr, SRB assay
  GI50: 29 ± 5.9 nM
[6]; BrC16HT at both 25 and 50 mg/kg, delayed i.p. schedule
  survival compared to Taxol® 25 mg/kg: significantly increased survival
[6]; delayed i.p. schedule (Table 9b)
  long-term survivors (LTS), in words: clear dose-response effect with regard to LTS
[6]; early (days 1, 3, 5, 7 & 9) and delayed (days 20, 22, 24, 26 & 28) i.p. treatment schedules
  survival of tumor-bearing mice vs. control: significantly prolonged (p<0.05 vs. control) the survival
[6]; early and delayed i.p. schedules
  survival time compared with Taxol® at equivalent doses: more effective than Taxol® in extending survival time
[6]; 25 mg/kg
  % ILS: 115%
  LTS/n (mice that survived to 300 days): 4/10
  MST Days ± SEM (n): 220 ± 13 (6) Days
  Median survival time: 221 days
[6]; 50 mg/kg
  % ILS: 80%
  LTS/n (mice that survived to 300 days): 7/10
  MST Days ± SEM (n): 183 ± 67 (3) Days
  Median survival time: 245 days
A549 human lung cancer; all early treatment schedules (FIGS. 8a-c), BrC16HT at 12.5 or 25 mg/kg i.v.
  efficacy compared with Taxol® at 25 mg/kg: more effective than Taxol® at 25 mg/kg
A549 human lung cancer; delayed schedule, days 20, 22, 24, 26 and 28, 25 mg/kg i.v. (FIG. 8d)
  tumor regression compared with Taxol®: greater and more prolonged tumor regression
A549 human lung cancer; i.v., independent of the dose schedule, BrC16HT 12.5-25 mg/kg, Taxol® 25 mg/kg
  tumor growth vs. control: significantly (p <0.05 vs. control) inhibited the tumor growth
[7]
  GI50: > 10000 nM
CDF1 female mice; CDF1 mice
  relative acute toxicity of the liposomes: less toxic than were the 2-bromo-C6 paclitaxel derivative-containing liposomes
CDF1 female mice; single dose 300 mg/kg
  number of mice that died within the first 14 days post-injection/total: 1/5
CDF1 female mice; single dose 400 mg/kg
  number of mice that died within the first 14 days post-injection/total: 1/5
CDF1 female mice; single dose 500 mg/kg
  number of mice that died within the first 14 days post-injection/total: 0/5
[8]; 6 mg/mL in Crem/EtOH (50:50), undiluted, storage 4° C., 0 h
  Percentage of BrC16HT in Sample: 93%
[8]; 6 mg/mL in Crem/EtOH (50:50), undiluted, storage 4° C., 1 Week
  Percentage of BrC16HT in Sample: 83%
[8]; 6 mg/mL in Crem/EtOH (50:50), undiluted, storage 4° C., 2 Week
  Percentage of BrC16HT in Sample: 93%
[8]; 6 mg/mL in Crem/EtOH (50:50), undiluted, storage 4° C., 3 Week
  Percentage of BrC16HT in Sample: 61%
[8]; 6 mg/mL in Crem/EtOH (50:50), undiluted, storage 4° C., 4 Week
  Percentage of BrC16HT in Sample: 58%
[8]; 6 mg/mL in Crem/EtOH (50:50), undiluted, storage 4° C., 5 Week
  Percentage of BrC16HT in Sample: 53%
[8]; 6 mg/mL in Crem/EtOH (50:50), undiluted, storage 4° C., 24 h
  Percentage of BrC16HT in Sample: 89%
[8]; 6 mg/mL in Crem/EtOH (50:50), undiluted, storage 26° C., 0 h
  Percentage of BrC16HT in Sample: 95%
[8]; 6 mg/mL in Crem/EtOH (50:50), undiluted, storage 26° C., 1 Week
  Percentage of BrC16HT in Sample: 42%
[8]; 6 mg/mL in Crem/EtOH (50:50), undiluted, storage 26° C., 2 Week
  Percentage of BrC16HT in Sample: 22%
[8]; 6 mg/mL in Crem/EtOH (50:50), undiluted, storage 26° C., 3 Week
  Percentage of BrC16HT in Sample: 14%
[8]; 6 mg/mL in Crem/EtOH (50:50), undiluted, storage 26° C., 4 Week
  Percentage of BrC16HT in Sample: 8%
[8]; 6 mg/mL in Crem/EtOH (50:50), undiluted, storage 26° C., 5 Week
  Percentage of BrC16HT in Sample: 5%
[8]; 6 mg/mL in Crem/EtOH (50:50), undiluted, storage 26° C., 24 h
  Percentage of BrC16HT in Sample: 84%
[8]; 20 mg/mL in Crem/EtOH (50:50) diluted with 5% dextrose to 6 mg/mL, storage 4° C., 0 h
  Percentage of BrC16HT in Sample: 92%
[8]; 20 mg/mL in Crem/EtOH (50:50) diluted with 5% dextrose to 6 mg/mL, storage 4° C., 1 Week
  Percentage of BrC16HT in Sample: 90%
[8]; 20 mg/mL in Crem/EtOH (50:50) diluted with 5% dextrose to 6 mg/mL, storage 4° C., 2 Week
  Percentage of BrC16HT in Sample: 88%
[8]; 20 mg/mL in Crem/EtOH (50:50) diluted with 5% dextrose to 6 mg/mL, storage 4° C., 3 Week
  Percentage of BrC16HT in Sample: 83%
[8]; 20 mg/mL in Crem/EtOH (50:50) diluted with 5% dextrose to 6 mg/mL, storage 4° C., 4 Week
  Percentage of BrC16HT in Sample: 85%
[8]; 20 mg/mL in Crem/EtOH (50:50) diluted with 5% dextrose to 6 mg/mL, storage 4° C., 5 Week
  Percentage of BrC16HT in Sample: 82%
[8]; 20 mg/mL in Crem/EtOH (50:50) diluted with 5% dextrose to 6 mg/mL, storage 4° C., 24 h
  Percentage of BrC16HT in Sample: 91%
[8]; 20 mg/mL in Crem/EtOH (50:50) diluted with 5% dextrose to 6 mg/mL, storage 26° C., 0 h
  Percentage of BrC16HT in Sample: 97%
[8]; 20 mg/mL in Crem/EtOH (50:50) diluted with 5% dextrose to 6 mg/mL, storage 26° C., 1 Week
  Percentage of BrC16HT in Sample: 93%
[8]; 20 mg/mL in Crem/EtOH (50:50) diluted with 5% dextrose to 6 mg/mL, storage 26° C., 2 Week
  Percentage of BrC16HT in Sample: 90%
[8]; 20 mg/mL in Crem/EtOH (50:50) diluted with 5% dextrose to 6 mg/mL, storage 26° C., 3 Week
  Percentage of BrC16HT in Sample: 81%
[8]; 20 mg/mL in Crem/EtOH (50:50) diluted with 5% dextrose to 6 mg/mL, storage 26° C., 4 Week
  Percentage of BrC16HT in Sample: 88%
[8]; 20 mg/mL in Crem/EtOH (50:50) diluted with 5% dextrose to 6 mg/mL, storage 26° C., 5 Week
  Percentage of BrC16HT in Sample: 87%
[8]; 20 mg/mL in Crem/EtOH (50:50) diluted with 5% dextrose to 6 mg/mL, storage 26° C., 24 h
  Percentage of BrC16HT in Sample: 99%
